Reference: patent US5498427A, “Solutions for the perfusion, preservation and reperfusion of organs” (Pasteur Merieux Serums et Vaccines, priority 1990, dated 1996)

Key:
[1] = tested on: isolated hearts from Sprague-Dawley rats; experiment: Test of solutions containing NAC on isolated rat heart preparations (Langendorff, arrest, 5 h cold storage, 1 h ischemia, 1 h reperfusion); conditions: for Left ventricular pressure developed, Reperfusion: after ischemia and reperfusion; for Left ventricular pressure developed, Reperfusion / Coronary flow rate, Reperfusion / Coronary flow rate, Normal / Left ventricular pressure developed, Normal: N = 10; for Coronary flow rate, Normal / Left ventricular pressure developed, Normal: pre-ischaemic reference value
Description: Fifty isovolumic preparations of isolated hearts from Sprague-Dawley rats weighing 300 grams were used, the hearts being connected rapidly to a non-recirculating Langendorff perfusion column to establish a retrograde perfusion using an oxygenated (95% O2, 5% CO2) Krebs-Henseleit buffer, to establish a retrograde perfusion at a pressure of 100 cm of water. The left ventricular pressure, its derivative and the end-diastolicpressure were recorded continuously. The coronary flow rate was measured by noting the venous coronary flow rate. Left ventricular stimulation was maintained at a frequency of 320/min.
After a twenty-minute monitoring period, thirty hearts were arrested by perfusion using the preservation and perfusion solution at 4° C., and then rapidly placed in glass containers filled with the same solution and surrounded by ice. The hearts were maintained therein for five hours, with a mean myocardial temperature of 2° C. at the end of storage. The hearts were then reconnected to the perfusion circuit and subjected to an additional ischemia for one hour at between 15° and 18° C. The hearts were divided into three groups, including a control group which received a first perfusion of a solution which was identical but devoid of NAC on establishment of the post-storage ischemia and an additional perfusion of 25 ml of this solution immediately before unclamping the aorta, the perfusions being performed at 4° C. and 28° C., respectively. […] In the third group, a solution containing NAC at 28° C. was distributed in a single dose at the end of the ischemia. In this latter group, the NAC concentration was adjusted to 0.072 M so that all the hearts treated received the same amount of this substance, that is to say approximately 1.80 millimoles. The bottles containing the solutions as well as the connecting tubes were protected from light in order to avoid oxidation. In all three groups, the perfusions after storage were delivered at a pressure of 30 cm of water. After a period of ischemia of six hours, the hearts were reperfused for one hour at 37° C.
For all three groups, the stimulation was stopped and the left intraventricular balloon deflated during the period of ischemia so as to simulate clinical conditions. After reperfusion, stimulation was reestablished. Isovolumetric measurements of the coronary flow rate, the left ventricular pressure, its first derivative and the telediastolic pressure were performed three times during the monotoring period and then at 5, 30, 45 and 60 minutes during the reperfusion.

[2] = hypothermic storage conditions in usual bags, periods up to 3 hours
From the text: In one embodiment the solution is stored, as a whole, in the container.

[3] = Group II, multidose solution enriched with NAC, versus Groups I and III
[4] = Second group, (0.04 M) NAC multidose
[5] = Third group, (0.07 M) NAC single dose at end of ischemia

| SMILES | Left ventricular diastolic pressure: postischemic contracture ([1]; Group II, multidose solution enriched with NAC) | Left ventricular pressure developed throughout the reperfusion period [1, 3] | Postischemic derivative dP/dt [1, 3] | Left ventricular diastolic pressure: compliance ([1]; Group III, reperfusion supplemented with NAC only at end of ischemia) | Left ventricular pressure loss after ischemia and reperfusion ([1]; Group III, reperfusion supplemented with NAC only at end of ischemia, versus Group II) | Left ventricular pressure developed, Reperfusion [1, 4] | Coronary flow rate, Reperfusion ([1]; Second group, (0.04 M) NAC multidose, after sixty minutes of reperfusion) | Coronary flow rate, Normal [1, 4] | Left ventricular pressure developed, Normal [1, 4] | Left ventricular pressure developed, Reperfusion [1, 5] | Coronary flow rate, Reperfusion ([1]; Third group, (0.07 M) NAC single dose at end of ischemia, after sixty minutes of reperfusion) | Coronary flow rate, Normal [1, 5] | Left ventricular pressure developed, Normal [1, 5] | Recovery of coronary flow rate ([1]; groups treated with NAC versus control, after sixty minutes of reperfusion) | Rate of glutathione oxydation on storage [2] |
| --- | --- | --- | --- | --- | --- | --- | --- | --- | --- | --- | --- | --- | --- | --- | --- |
| CC(=O)N[C@@H](CS)C(=O)O [NAC, N-acetylcysteine] | significantly decreased | significantly greater pressure was developed | largest values | significant loss of compliance | significantly greater pressure losses | 101.5 ± 3.4 mm Hg | 12.1 ± 0.5 mL/min | 14.8 ± 0.6 mL/min | 126.4 ± 2.8 mm Hg | 69.8 ± 3.6 mm Hg | 13.4 ± 0.4 mL/min | 16.0 ± 0.5 mL/min | 129.7 ± 2.0 mm Hg | best recovery of coronary flow rate | – |
| N[C@@H](CCC(=O)N[C@@H](CS)C(=O)NCC(=O)O)C(=O)O [glutathione] | – | – | – | – | – | – | – | – | – | – | – | – | – | – | only minimal rate of glutathione oxydation |
